Like-named read-outs stand apart in the source and are kept apart here. One block for each molecule: values may come before it.
What was measured:
[1] = Differential scanning calorimetry (DSC); type: physicochemical; details: for DSC Fusion enthalpy ΔH: 25 to 250° C., heating rate 20° C./min.
Description: Furthermore, the quinolinone derivative used in the present invention has a fusion enthalpy (ΔH) of 30 J/g or more, and preferably 35 J/g or more. […] As used herein, the term “fusion enthalpy” refers to a value obtained from an endothermic peak due to fusion of the quinolinone derivative crystal in differential scanning calorimetry (DSC) and is an index of the crystallinity.
(§1) • Measurement of particle size distribution: The particle size distribution was automatically measured by AEROSIZER (manufactured by Central Scientific Commerce, Inc.). • DSC method: Using DSC7 (manufactured by Perkin Elmer Co.), the measurement was conducted at a temperature within a range from 25 to 250° C. under the conditions of a heating rate of 20° C./min. by a normal method.

[2] = Measurement of particle size distribution (AEROSIZER); type: physicochemical; details: for Average particle diameter: mass median aerodynamic diameter
Description: As used herein, the expression “quinolinone derivative is in the form of particles, which have an average particle diameter of 0.5 to 10 μm and such a particle size distribution that particles having a particle diameter of 15 μm or less account for 90% or more of the totality of the particles” means that a mass median aerodynamic diameter in the volume-basis distribution obtained, when the particle size distribution of the quinolinone derivative is measured by an aerodynamic flight time type dry particle size distribution measuring apparatus (AEROSIZER: Central Scientific Commerce, Inc.), is within a range from 0.5 to 10 μm and the particles have such a particle size distribution that particles having a particle diameter of 15 μm or less account for 90% or more of the totality of the particles.
as §1

[3] = Dissolution test, paddle method, 50 rpm, 0.5% sodium lauryl sulfate; type: physicochemical; details: paddle 50 rpm, compared with the non-ground product
Description: Furthermore, dissolution properties of these quinolinone derivatives were evaluated by the dissolution test (paddle method). The results are shown in FIG. 2. • Powder X-ray diffraction method: Using RINT-ULTIMA (manufactured by Rigaku Denki Kogyo Co., Ltd.), the measurement was conducted at a diffraction angle within a range from 5 to 40° under the conditions of Cu—Kα rays, 40 KV and 30 mA by the normal method. • Dissolution test method: According to the second method (paddle method) of the dissolution test method of The Pharmacopoeia of Japan, Fourteenth Edition, the measurement was conducted under the conditions of a paddle rotational speed of 50 rpm using 0.5% sodium lauryl sulfate as a test liquid.
(§2) According to the disintegration test of The Pharmacopoeia of Japan, Fourteenth Edition, the disintegration time of the resulting tablets was measured by using water as a test liquid (n=3). […]
as §2, §2

[4] = dog, in vivo, po, 10 mg/kg
Description: After oral administration, 30 ml of distilled water was orally administered. After oral administration, 2.5 ml of blood was collected from the antebrachial vein over time and was then centrifuged to obtain blood plasma. After adding the one-fold amount of acetonitrile to blood serum to remove protein, the amounts of quinolinone derivative and its metabolite were determined by using HPLC.
From the quantitatively determined values of the quinolinone derivative and its metabolite immediately after collecting blood, an average value of a maximum concentration in blood (Cmax) and an average value of an area under a curve of concentration in blood vs time (AUC) were determined.

Solid state by DSC (endothermic peak of β-type crystal) ([1]; after grinding in agate mortar for 30 minutes): amorphous state
Structure (SMILES): CCCCCCCCOc1c(O)c2ccc(NC(=O)/C=C/c3cc(OC)c(O)c(OC)c3)cc2n(C)c1=O [Comparative Example 2, 7-(3,5-dimethoxy-4-hydroxycinnamoylamino)-3-octyloxy-4-hydroxy-1-methyl-2(1H)-quinoline]

Proportion (%) of particles having a particle diameter of 15 μm or less based on the totality of the particles [2]: ≥ 9.9%
Proportion (%) of particles having a particle diameter of 15 μm or less based on the totality of the particles ([2]; listed as (A)): 9.9%
Average particle diameter [2]: 25.3 μm
Average particle diameter ([2]; listed as (A)): 25.3 μm
DSC Fusion enthalpy ΔH [1]: ≥ 49.9 J/g
DSC Fusion enthalpy ΔH ([1]; listed as (A)): 49.9 J/g
Structure (SMILES): CCCCCCCCOc1c(O)c2ccc(NC(=O)/C=C/c3cc(OC)c(O)c(OC)c3)cc2n(C)c1=O [quinolinone derivative (A), 7-(3,5-dimethoxy-4-hydroxycinnamoylamino)-3-octyloxy-4-hydroxy-1-methyl-2(1H)-quinoline]

Proportion (%) of particles having a particle diameter of 15 μm or less based on the totality of the particles ([2]; listed as (A-1)): 100%
Average particle diameter ([2]; listed as (A-1)): 4.5 μm
dissolution rate (FIG. 2) [3]: drastically increased
DSC Fusion enthalpy ΔH ([1]; listed as (A-1)): 47.7 J/g
Structure (SMILES): CCCCCCCCOc1c(O)c2ccc(NC(=O)/C=C/c3cc(OC)c(O)c(OC)c3)cc2n(C)c1=O [quinolinone derivative (A-1), 7-(3,5-dimethoxy-4-hydroxycinnamoylamino)-3-octyloxy-4-hydroxy-1-methyl-2(1H)-quinoline]

Proportion (%) of particles having a particle diameter of 15 μm or less based on the totality of the particles [2]: ≥ 0.6%
Proportion (%) of particles having a particle diameter of 15 μm or less based on the totality of the particles ([2]; listed as (B)): 0.6%
Average particle diameter [2]: 33.3 μm
Average particle diameter ([2]; listed as (B)): 33.3 μm
DSC Fusion enthalpy ΔH [1]: ≥ 52.7 J/g
DSC Fusion enthalpy ΔH ([1]; listed as (B)): 52.7 J/g
Structure (SMILES): CCCCCCCCOc1c(O)c2ccc(NC(=O)/C=C/c3cc(OC)c(O)c(OC)c3)cc2n(C)c1=O [quinolinone derivative (B), 7-(3,5-dimethoxy-4-hydroxycinnamoylamino)-3-octyloxy-4-hydroxy-1-methyl-2(1H)-quinoline]

AUC increase as compared with the non-ground product [4]: 8.7 times
Cmax increase as compared with the non-ground product [4]: 9 times
Proportion (%) of particles having a particle diameter of 15 μm or less based on the totality of the particles ([2]; listed as (B-1)): 95%
Average particle diameter ([2]; listed as (B-1)): 6.6 μm
DSC Fusion enthalpy ΔH ([1]; listed as (B-1)): 51.6 J/g
Structure (SMILES): CCCCCCCCOc1c(O)c2ccc(NC(=O)/C=C/c3cc(OC)c(O)c(OC)c3)cc2n(C)c1=O [quinolinone derivative (B-1), 7-(3,5-dimethoxy-4-hydroxycinnamoylamino)-3-octyloxy-4-hydroxy-1-methyl-2(1H)-quinoline]

Source: patent US7081256B2, “Quinolinone derivative pharmaceutical compositon and production method therefor” (Dainippon Ink and Chemicals, Inc., priority 2001, dated 2006)
